# Reference: patent publication US10919911B2, “Tricyclic ASK1 inhibitors” (Terns, Inc., priority 2018, dated 2021)
# Target: ASK1 kinase (Homo sapiens (Human), UniProt Q99683)
# Experiment: RBC Kinase Assay (33P-ATP radiometric, myelin basic protein substrate)
# Format: biochemical
# Details: 20 ng ASK1 kinase, MBP substrate, 120 min at room temperature, 1% DMSO
# Method: Example B1. RBC Kinase Assay Protocol
# Base Reaction buffer: 20 mM Hepes (pH 7.5), 10 mM MgCl2, 1 mM EGTA, 0.02% Brij35, 0.02 mg/ml BSA, 0.1 mM Na3VO4, 2 mM DTT, and 1% DMSO were used for the assay.
# Myelin base protein (MPB) was prepared in freshly prepared Base Reaction Buffer. 20 ng of ASK1 kinase was delivered into the substrate solution and gently mixed. Compounds in DMSO were delivered into the kinase reaction mixture (final DMSO concentration 1%). Commercially available 33P-ATP was delivered into the reaction mixture to initiate the reaction. The kinase reaction was incubated for 120 min. at room temperature. Reactions were spotted onto P81 ion exchange paper (Whatman #3698-915). Filters were washed extensively in 0.75% Phosphoric acid. Radioactivity on filters was read, and IC50 values were determined.
# Chain of ASK1 kinase (Q99683 whole entry): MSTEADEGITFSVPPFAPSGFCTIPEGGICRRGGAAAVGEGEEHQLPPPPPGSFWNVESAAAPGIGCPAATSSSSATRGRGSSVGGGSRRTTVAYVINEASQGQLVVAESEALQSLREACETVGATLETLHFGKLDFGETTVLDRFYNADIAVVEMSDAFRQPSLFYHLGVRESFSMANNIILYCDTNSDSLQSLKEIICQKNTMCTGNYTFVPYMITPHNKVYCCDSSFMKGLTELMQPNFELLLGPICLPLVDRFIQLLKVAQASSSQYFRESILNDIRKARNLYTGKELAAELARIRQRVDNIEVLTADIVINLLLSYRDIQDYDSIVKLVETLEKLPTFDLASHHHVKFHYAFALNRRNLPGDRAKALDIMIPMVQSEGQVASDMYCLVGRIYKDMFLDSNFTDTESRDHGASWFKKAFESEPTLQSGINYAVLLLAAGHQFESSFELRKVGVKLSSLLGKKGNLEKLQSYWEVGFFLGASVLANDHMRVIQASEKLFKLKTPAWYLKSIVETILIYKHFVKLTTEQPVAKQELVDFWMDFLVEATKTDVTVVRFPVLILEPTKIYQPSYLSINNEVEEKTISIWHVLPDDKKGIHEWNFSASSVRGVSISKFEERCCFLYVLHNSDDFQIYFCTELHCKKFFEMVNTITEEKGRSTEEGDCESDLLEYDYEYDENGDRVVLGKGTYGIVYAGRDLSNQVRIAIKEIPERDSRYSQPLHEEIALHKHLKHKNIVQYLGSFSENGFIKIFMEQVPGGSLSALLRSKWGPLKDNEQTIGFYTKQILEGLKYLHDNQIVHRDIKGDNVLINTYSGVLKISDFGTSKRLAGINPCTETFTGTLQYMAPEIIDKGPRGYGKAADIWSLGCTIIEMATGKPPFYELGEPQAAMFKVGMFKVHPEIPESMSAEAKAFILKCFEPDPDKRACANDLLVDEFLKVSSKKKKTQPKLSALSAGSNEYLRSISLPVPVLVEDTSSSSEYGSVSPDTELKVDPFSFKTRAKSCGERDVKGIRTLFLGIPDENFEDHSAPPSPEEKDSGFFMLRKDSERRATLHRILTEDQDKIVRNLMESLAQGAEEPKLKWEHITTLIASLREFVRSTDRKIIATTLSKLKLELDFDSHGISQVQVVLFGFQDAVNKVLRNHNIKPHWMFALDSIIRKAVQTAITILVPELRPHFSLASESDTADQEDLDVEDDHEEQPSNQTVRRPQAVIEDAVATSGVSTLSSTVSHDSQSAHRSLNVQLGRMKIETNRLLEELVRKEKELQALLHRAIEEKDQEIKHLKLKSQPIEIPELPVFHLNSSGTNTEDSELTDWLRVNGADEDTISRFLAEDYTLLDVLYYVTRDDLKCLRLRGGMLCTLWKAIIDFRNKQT
row,IC50 [nM],SMILES
1,4.2,"Cc1cc(F)c(C(=O)Nc2cccc3c2OCC2(CC2)n2nnnc2-3)cc1-n1cnc(C2CC2)c1 [Example 14, 5-(4-cyclopropyl-1H-imidazol-1-yl)-2-fluoro-4-methyl-N-(6H-spiro[benzo[f]tetrazolo[1,5-d][1,4]oxazepine-5,1′-cyclopropan]-8-yl)benzamide]"
2,3.2,"C[C@@H]1CN(c2cnc(C(=O)Nc3cccc4c3OC[C@H](C)n3nnnc3-4)cc2-n2cnc(C3CC3)c2)CCO1 [Example 76, 4-(4-cyclopropyl-1H-imidazol-1-yl)-N—((S)-5-methyl-5,6-dihydrobenzo[f]tetrazolo[1,5-d][1,4]oxazepin-8-yl)-5-((R)-2-methylmorpholino)picolinamide]"
3,8.5,"Cc1cc(F)c(C(=O)Nc2cccc3c2OCCn2cnnc2-3)cc1-n1cnc(C2CC2)c1 [Example 7, 5-(4-cyclopropyl-1H-imidazol-1-yl)-N-(5,6-dihydrobenzo[f][1,2,4]triazolo[4,3-d][1,4]oxazepin-8-yl)-2-fluoro-4-methylbenzamide]"
4,0.6,"C[C@H]1COc2c(NC(=O)c3cc(-n4cnc(C5CC5)c4)c(N4CCOCC4)cn3)cccc2-c2nnnn21 [Example 22, (S)-4-(4-cyclopropyl-1H-imidazol-1-yl)-N-(5-methyl-5,6-dihydrobenzo[f]tetrazolo[1,5-d][1,4]oxazepin-8-yl)-5-morpholinopicolinamide]"
5,0.9,"Cc1cc(F)c(C(=O)Nc2cccc3c2O[C@H](C)Cn2nnnc2-3)cc1-n1cnc(C2CC2)c1 [Example 43, (R)-5-(4-cyclopropyl-1H-imidazol-1-yl)-2-fluoro-4-methyl-N-(6-methyl-5,6-dihydrobenzo[f]tetrazolo[1,5-d][1,4]oxazepin-8-yl)benzamide]"
6,2.2,"C[C@@H]1COc2c(NC(=O)c3cc(-n4cnc(C5CC5)c4)c(N4CCOCC4)cn3)cccc2-c2nnnn21 [Example 19, (R)-4-(4-cyclopropyl-1H-imidazol-1-yl)-N-(5-methyl-5,6-dihydrobenzo[f]tetrazolo[1,5-d][1,4]oxazepin-8-yl)-5-morpholinopicolinamide]"
7,4.7,"Cc1cc(F)c(C(=O)Nc2cccc3c2OC[C@@H](C2CC2)n2nnnc2-3)cc1-n1cnc(C2CC2)c1 [Example 12, (R)-5-(4-cyclopropyl-1H-imidazol-1-yl)-N-(5-cyclopropyl-5,6-dihydrobenzo[f]tetrazolo[1,5-d][1,4]oxazepin-8-yl)-2-fluoro-4-methylbenzamide]"
8,5.5,"C[C@@H]1COc2c(NC(=O)c3cc(-n4cnc(C5CC5)c4)c(N4CCOCC4)cn3)cccc2-c2nncn21 [Example 39, (R)-4-(4-cyclopropyl-1H-imidazol-1-yl)-N-(5-methyl-5,6-dihydrobenzo[f][1,2,4]triazolo[4,3-d][1,4]oxazepin-8-yl)-5-morpholinopicolinamide]"
9,10.9,"Cc1cc(F)c(C(=O)Nc2cccc3c2OC[C@@H](CO)n2nnnc2-3)cc1-n1cnc(C2CC2)c1 [Example 17, (R)-5-(4-cyclopropyl-1H-imidazol-1-yl)-2-fluoro-N-(5-(hydroxymethyl)-5,6-dihydrobenzo[f]tetrazolo[1,5-d][1,4]oxazepin-8-yl)-4-methylbenzamide]"
10,4.1,"O=C(Nc1cccc2c1OC[C@H](CF)n1cnnc1-2)c1cc(-n2cnc(C3CC3)c2)ccn1 [Example 33, (R)-4-(4-cyclopropyl-1H-imidazol-1-yl)-N-(5-(fluoromethyl)-5,6-dihydrobenzo[f][1,2,4]triazolo[4,3-d][1,4]oxazepin-8-yl)picolinamide]"
11,2.5,"Cc1cc(F)c(C(=O)Nc2cccc3c2O[C@@H](C)Cn2cnnc2-3)cc1-n1cnc(C2CC2)c1 [Example 35, (S)-5-(4-cyclopropyl-1H-imidazol-1-yl)-2-fluoro-4-methyl-N-(6-methyl-5,6-dihydrobenzo[f][1,2,4]triazolo[4,3-d][1,4]oxazepin-8-yl)benzamide]"
12,7.7,"C[C@H]1COc2c(NC(=O)c3cc(-n4cnc(C5CC5)c4)ccn3)cccc2-c2nnnn21 [Example 6, (S)-4-(4-cyclopropyl-1H-imidazol-1-yl)-N-(5-methyl-5,6-dihydrobenzo[f]tetrazolo[1,5-d][1,4]oxazepin-8-yl)picolinamide]"
13,5.6,"CC1(C)COc2c(NC(=O)c3cc(-n4cnc(C5CC5)c4)c(N4CCOCC4)cn3)cccc2-c2nncn21 [Example 36, 4-(4-cyclopropyl-1H-imidazol-1-yl)-N-(5,5-dimethyl-5,6-dihydrobenzo[f][1,2,4]triazolo[4,3-d][1,4]oxazepin-8-yl)-5-morpholinopicolinamide]"
14,3.5,"O=C(Nc1cccc2c1OCCn1nnnc1-2)c1cc(-n2cnc(C3CC3)c2)c(N2CC[C@H](O)C2)cn1 [Example 61, (S)-4-(4-cyclopropyl-1H-imidazol-1-yl)-N-(5,6-dihydrobenzo[f]tetrazolo[1,5-d][1,4]oxazepin-8-yl)-5-(3-hydroxypyrrolidin-1-yl)picolinamide]"
15,6,"O=C(Nc1cccc2c1OCCn1nnnc1-2)c1cc(-n2cnc(C3CC3)c2)c(N2CCOCC2)cn1 [Example 21, 4-(4-cyclopropyl-1H-imidazol-1-yl)-N-(5,6-dihydrobenzo[f]tetrazolo[1,5-d][1,4]oxazepin-8-yl)-5-morpholinopicolinamide]"
16,4.7,"O=C(Nc1cccc2c1OCCn1nnnc1-2)c1cc(-n2cnc(C3CC3)c2)c(N2CC[C@@H](O)C2)cn1 [Example 57, (R)-4-(4-cyclopropyl-1H-imidazol-1-yl)-N-(5,6-dihydrobenzo[f]tetrazolo[1,5-d][1,4]oxazepin-8-yl)-5-(3-hydroxypyrrolidin-1-yl)picolinamide]"
17,11.6,"O=C(Nc1cccc2c1OC[C@@H](CO)n1nnnc1-2)c1cc(-n2cnc(C3CC3)c2)ccn1 [Example 18, (R)-4-(4-cyclopropyl-1H-imidazol-1-yl)-N-(5-(hydroxymethyl)-5,6-dihydrobenzo[f]tetrazolo[1,5-d][1,4]oxazepin-8-yl)picolinamide]"
18,3.3,"O=C(Nc1cccc2c1OCC1(CC1)n1cnnc1-2)c1cc(-n2cnc(C3CC3)c2)c(N2CCOCC2)cn1 [Example 25, 4-(4-cyclopropyl-1H-imidazol-1-yl)-5-morpholino-N-(6H-spiro[benzo[f][1,2,4]triazolo[4,3-d][1,4]oxazepine-5,1′-cyclopropan]-8-yl)picolinamide]"
19,2.1,"C[C@@H]1CN(c2cnc(C(=O)Nc3cccc4c3OCCn3nnnc3-4)cc2-n2cnc(C3CC3)c2)CCO1 [Example 55, (R)-4-(4-cyclopropyl-1H-imidazol-1-yl)-N-(5,6-dihydrobenzo[f]tetrazolo[1,5-d][1,4]oxazepin-8-yl)-5-(2-methylmorpholino)picolinamide]"
20,0.6,"C[C@H]1COc2c(NC(=O)c3cc(-n4cnc(C5CC5)c4)c(N4CCOCC4)cn3)cccc2-c2nncn21 [Example 38, (S)-4-(4-cyclopropyl-1H-imidazol-1-yl)-N-(5-methyl-5,6-dihydrobenzo[f][1,2,4]triazolo[4,3-d][1,4]oxazepin-8-yl)-5-morpholinopicolinamide]"
21,6.9,"CN(C)c1cnc(C(=O)Nc2cccc3c2OCCn2nnnc2-3)cc1-n1cnc(C2CC2)c1 [Example 60, 4-(4-cyclopropyl-1H-imidazol-1-yl)-N-(5,6-dihydrobenzo[f]tetrazolo[1,5-d][1,4]oxazepin-8-yl)-5-(dimethylamino)picolinamide]"
22,4,"C[C@@H]1CN(c2cnc(C(=O)Nc3cccc4c3OC[C@@H](C)n3nnnc3-4)cc2-n2cnc(C3CC3)c2)CCO1 [Example 75, 4-(4-cyclopropyl-1H-imidazol-1-yl)-N—((R)-5-methyl-5,6-dihydrobenzo[f]tetrazolo[1,5-d][1,4]oxazepin-8-yl)-5-((R)-2-methylmorpholino)picolinamide]"
23,6.2,"O=C(Nc1cccc2c1OC[C@H](CO)n1nnnc1-2)c1cc(-n2cnc(C3CC3)c2)ccn1 [Example 24, (S)-4-(4-cyclopropyl-1H-imidazol-1-yl)-N-(5-(hydroxymethyl)-5,6-dihydrobenzo[f]tetrazolo[1,5-d][1,4]oxazepin-8-yl)picolinamide]"
24,5.7,"Cc1cc(F)c(C(=O)Nc2cccc3c2OCCn2cncc2-3)cc1-n1cnc(C2CC2)c1 [Example 41, 5-(4-cyclopropyl-1H-imidazol-1-yl)-N-(5,6-dihydrobenzo[f]imidazo[1,5-d][1,4]oxazepin-8-yl)-2-fluoro-4-methylbenzamide]"
25,2.7,"CC1(O)CCN(c2cnc(C(=O)Nc3cccc4c3OCCn3nnnc3-4)cc2-n2cnc(C3CC3)c2)C1 (stereo not shown) [Example 63, 4-(4-cyclopropyl-1H-imidazol-1-yl)-N-(5,6-dihydrobenzo[f]tetrazolo[1,5-d][1,4]oxazepin-8-yl)-5-(3-hydroxy-3-methylpyrrolidin-1-yl)picolinamide]"
